Experimental data taken from PubChem BioAssay AID256 (DTP/NCI, 2004).
Values joined by “and” are separate entries in the source; they are usually repeats but may differ in a detail not shown here. Equal entries are not always repeated. Inconclusive results and toxic doses are left out. The calls were made as follows: active = survival T/C of 150% or more; inactive = T/C below 125% in these data. Non-standard residues stand in square brackets, D forms with d. Residues, ends and D or L forms follow the SMILES beside them. ξ: configuration not given here. *: point of attachment. Trt = c1ccc(C(c2ccccc2)(c2ccccc2)*)cc1; Cbz = O=C(OCc1ccccc1)*; OtBu = CC(C)(C)O*; ξC = NC(CS)C(=O)O

Tested on: CD2F1 mice, L1210 leukemia ip, survival T/C
Experiment: NCI In Vivo Anticancer Drug Screen. Data for tumor model L1210 Leukemia (intraperitoneal) in CD2F1 (CDF1) mice
Details: higher = longer survival
Method in brief: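 Mice carrying a transplanted tumor received test compound or vehicle alone. The value is the measurement in the treated group divided by that in the vehicle-treated control group.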

[1] = endpoint: mean survival time, dose: 100.0 mg/kg/injection, schedule: Q04DX003 (ip), vehicle: saline with Tween-80
[2] = endpoint: mean survival time, dose: 50.0 mg/kg/injection, schedule: Q01DX009 (ip), vehicle: saline with Tween-80
[3] = endpoint: mean survival time, dose: 100.0 mg/kg/injection, schedule: Q01DX009 (ip), vehicle: saline with Tween-80
[4] = endpoint: mean survival time, dose: 200.0 mg/kg/injection, schedule: Q04DX003 (ip), vehicle: saline with Tween-80
[5] = endpoint: mean survival time, dose: 400.0 mg/kg/injection, schedule: Q04DX003 (ip), vehicle: saline with Tween-80
[6] = endpoint: mean survival time, dose: 200.0 mg/kg/injection, schedule: Q01DX009 (ip), vehicle: saline with Tween-80
[7] = endpoint: mean survival time, dose: 400.0 mg/kg/injection, schedule: Q01DX009 (ip), vehicle: saline with Tween-80

Measured: T/C

CCCC(=O)O.CCCC(=O)O.CCCC(=O)O.CCCC(=O)O.O=P1(N(CCCl)CCCl)NCCCO1.O=P1(N(CCCl)CCCl)NCCCO1.[Rh].[Rh] (stereo not drawn)
inactive: endpoint: median survival time, dose: 0.13 mg/kg/injection, schedule: Q01DX001 (ip), vehicle: olive oil, sesame oil, peanut oil 101 % of control | endpoint: median survival time, dose: 0.25 mg/kg/injection, schedule: Q01DX001 (ip), vehicle: olive oil, sesame oil, peanut oil 102 % of control | endpoint: median survival time, dose: 0.5 mg/kg/injection, schedule: Q01DX001 (ip), vehicle: olive oil, sesame oil, peanut oil 103 % of control | endpoint: median survival time, dose: 1.0 mg/kg/injection, schedule: Q01DX001 (ip), vehicle: olive oil, sesame oil, peanut oil 95 % of control | endpoint: median survival time, dose: 2.0 mg/kg/injection, schedule: Q01DX001 (ip), vehicle: olive oil, sesame oil, peanut oil 102 % of control

c1ccc2cc(OCCOCCOc3ccc4ccccc4c3)ccc2c1
inactive: endpoint: mean survival time, dose: 100.0 mg/kg/injection, schedule: Q01DX001 (ip), vehicle: saline with Tween-80 103 % of control | endpoint: mean survival time, dose: 200.0 mg/kg/injection, schedule: Q01DX001 (ip), vehicle: saline with Tween-80 100 % of control | endpoint: mean survival time, dose: 400.0 mg/kg/injection, schedule: Q01DX001 (ip), vehicle: saline with Tween-80 97 % of control

CN(C)c1ccc2c(NCCCCCCNc3ccnc4cc(N(C)C)ccc34)ccnc2c1
inactive: endpoint: median survival time, dose: 1.56 mg/kg/injection, schedule: Q01DX009 (ip), vehicle: distilled water + Tween-80 + alcohol 105 % of control | endpoint: median survival time, dose: 3.12 mg/kg/injection, schedule: Q01DX009 (ip), vehicle: distilled water + Tween-80 + alcohol 104 % of control | endpoint: median survival time, dose: 6.25 mg/kg/injection, schedule: Q01DX009 (ip), vehicle: distilled water + Tween-80 + alcohol 111 % of control

C=C1C(=O)O[C@@H]2C[C@@H](C)[C@@H]3[C@@H](OC4OC(COC(C)=O)C(O)C(O)C4O)CC(=O)[C@@]3(C)C[C@H]12 (stereo partly drawn)
inactive: endpoint: mean survival time, dose: 35.0 mg/kg/injection, schedule: Q01DX009 (ip), vehicle: saline 108 % of control | endpoint: mean survival time, dose: 50.0 mg/kg/injection, schedule: Q01DX009 (ip), vehicle: saline 95 % of control | endpoint: mean survival time, dose: 75.0 mg/kg/injection, schedule: Q01DX009 (ip), vehicle: saline 102 % of control

COC(=O)Nc1cccc(OS(=O)(=O)N(C)C)c1
inactive: [1] 103 % of control

CC(=O)Nc1ccc(/C=N\NC(=O)CNC(=O)Nc2ccc(F)cc2)cc1
inactive: [2] 96 % of control | [3] 96 % of control

O=C(O)C(C(=O)O)=C(C(=O)c1ccccc1)c1ccccc1
inactive: endpoint: mean survival time, dose: 100.0 mg/kg/injection, schedule: Q01DX009 (ip), vehicle: other 95 % of control | endpoint: mean survival time, dose: 200.0 mg/kg/injection, schedule: Q01DX009 (ip), vehicle: other 100 % of control | endpoint: mean survival time, dose: 400.0 mg/kg/injection, schedule: Q01DX009 (ip), vehicle: other 95 % of control

COC(=O)CC(=O)C1(C)CC1
inactive: endpoint: mean survival time, dose: 100.0 mg/kg/injection, schedule: Q04DX003 (ip), vehicle: saline 90 % of control | endpoint: mean survival time, dose: 200.0 mg/kg/injection, schedule: Q04DX003 (ip), vehicle: saline 93 % of control | endpoint: mean survival time, dose: 400.0 mg/kg/injection, schedule: Q04DX003 (ip), vehicle: saline 96 % of control

O=P(O)(O)OP(=O)(O)O.[NH-]CC[NH-].[NH-]CC[NH-].[Pd+2].[Pd+2]
inactive: endpoint: mean survival time, dose: 3.13 mg/kg/injection, schedule: Q04DX003 (ip), vehicle: distilled water + Tween-80 98 % of control | endpoint: mean survival time, dose: 6.25 mg/kg/injection, schedule: Q04DX003 (ip), vehicle: distilled water + Tween-80 93 % of control | endpoint: mean survival time, dose: 12.5 mg/kg/injection, schedule: Q04DX003 (ip), vehicle: distilled water + Tween-80 87 % of control | endpoint: mean survival time, dose: 25.0 mg/kg/injection, schedule: Q04DX003 (ip), vehicle: distilled water + Tween-80 96 % of control | endpoint: mean survival time, dose: 50.0 mg/kg/injection, schedule: Q04DX003 (ip), vehicle: distilled water + Tween-80 100 % of control | endpoint: mean survival time, dose: 100.0 mg/kg/injection, schedule: Q04DX003 (ip), vehicle: distilled water + Tween-80 105 % of control

COc1cc(C(C)=O)cc([N+](=O)[O-])c1O
inactive: [2] 102 % of control | [3] 91 % of control

Nn1cnc2ccccc2c1=O
inactive: endpoint: mean survival time, dose: 100.0 mg/kg/injection, schedule: Q01DX001 (ip), vehicle: saline 101 % of control | endpoint: mean survival time, dose: 200.0 mg/kg/injection, schedule: Q01DX001 (ip), vehicle: saline 102 % of control | endpoint: mean survival time, dose: 400.0 mg/kg/injection, schedule: Q01DX001 (ip), vehicle: saline 102 % of control

CC(=O)Nc1cc(N)cc(-c2ccccc2)c1
inactive: endpoint: mean survival time, dose: 50.0 mg/kg/injection, schedule: Q04DX002 (ip), vehicle: saline with Tween-80 96 % of control and 104 % of control | [1] 94 % of control and 97 % of control | [4] 90 % of control and 94 % of control | [5] 94 % of control and 100 % of control

O=C1C2CC=CCC2C(=O)N1SC(Cl)(Cl)Cl (stereo not drawn)
inactive: endpoint: mean survival time, dose: 0.78 mg/kg/injection, schedule: Q01DX009 (ip), vehicle: saline with Tween-80 97 % of control | endpoint: mean survival time, dose: 1.56 mg/kg/injection, schedule: Q01DX009 (ip), vehicle: saline with Tween-80 97 % of control | endpoint: mean survival time, dose: 3.12 mg/kg/injection, schedule: Q01DX009 (ip), vehicle: saline with Tween-80 97 % of control | endpoint: mean survival time, dose: 6.25 mg/kg/injection, schedule: Q01DX009 (ip), vehicle: saline with Tween-80 93 % of control | endpoint: mean survival time, dose: 12.5 mg/kg/injection, schedule: Q01DX009 (ip), vehicle: saline with Tween-80 101 % of control | endpoint: mean survival time, dose: 25.0 mg/kg/injection, schedule: Q01DX009 (ip), vehicle: saline with Tween-80 89 % of control

Cc1ccc(S(=O)(=O)N/N=C2/C=C3C/C(=N\NS(=O)(=O)c4ccc(C)cc4)C=C3C2)cc1
inactive: [2] 93 % of control | [3] 89 % of control | [6] 89 % of control

CC(C)(C)OC(=O)CNC(=O)CNC(=O)CNC(=O)C(CSC(c1ccccc1)(c1ccccc1)c1ccccc1)NC(=O)OCc1ccccc1 (stereo not drawn) (Cbz-[ξC](Trt)GGG-OtBu)
inactive: [1] 101 % of control | [4] 95 % of control | [5] 92 % of control

CCN1CCSC1=S
inactive: endpoint: mean survival time, dose: 75.0 mg/kg/injection, schedule: Q01DX001 (ip), vehicle: other 102 % of control | endpoint: mean survival time, dose: 150.0 mg/kg/injection, schedule: Q01DX001 (ip), vehicle: other 100 % of control | endpoint: mean survival time, dose: 300.0 mg/kg/injection, schedule: Q01DX001 (ip), vehicle: other 103 % of control

N#C/C(=C1C=C/C(=N/O)C(Br)=C/1)c1ccccc1
inactive: [3] 108 % of control | [6] 96 % of control | [7] 95 % of control

c1ccc(C2=NN(c3ccccc3)C(c3ccccc3)C2NC2CCCCC2)cc1 (stereo not drawn)
inactive: endpoint: mean survival time, dose: 100.0 mg/kg/injection, schedule: Q04DX003 (ip), vehicle: acetone 93 % of control | endpoint: mean survival time, dose: 200.0 mg/kg/injection, schedule: Q04DX003 (ip), vehicle: acetone 92 % of control | endpoint: mean survival time, dose: 400.0 mg/kg/injection, schedule: Q04DX003 (ip), vehicle: acetone 97 % of control

O=c1cn[nH]c2cc(Cl)ccc12
inactive: [3] 91 % of control | [1] 100 % of control | [6] 101 % of control | [4] 105 % of control | [7] 92 % of control | [5] 97 % of control

CCC12C[N+]3([O-])CCc4c([nH]c5ccccc45)C(C(=O)OC)(c4cc5c(cc4OC)N(C)C4C(O)(C(=O)OC)C(OC(C)=O)C6(CC)C=CCN7CCC54C76)CC(C3)C1O2 (stereo not drawn)
inactive: endpoint: median survival time, dose: 0.62 mg/kg/injection, schedule: Q01DX009 (ip), vehicle: water 98 % of control | endpoint: median survival time, dose: 1.25 mg/kg/injection, schedule: Q01DX009 (ip), vehicle: water 103 % of control | endpoint: median survival time, dose: 2.5 mg/kg/injection, schedule: Q01DX009 (ip), vehicle: water 98 % of control and 105 % of control and 107 % of control | endpoint: median survival time, dose: 5.0 mg/kg/injection, schedule: Q01DX009 (ip), vehicle: water 101 % of control and 105 % of control and 110 % of control | endpoint: median survival time, dose: 10.0 mg/kg/injection, schedule: Q01DX009 (ip), vehicle: water 115 % of control and 117 % of control | endpoint: median survival time, dose: 20.0 mg/kg/injection, schedule: Q01DX009 (ip), vehicle: water 117 % of control and 119 % of control and 112 % of control

Cc1ccc(NCC(=O)O)c([N+](=O)[O-])c1
inactive: [1] 95 % of control | [4] 103 % of control
